# Key:
# [1] = molecular target: ER (Homo sapiens (Human), UniProt P03372); experiment: In-cell western blot analysis of relative ER percentage (Compounds B1-B278); assay type: cell-based; details: ER degradation, 16 hours, read-out: ICW DC50
# How it was run: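 Cells seeded at 40,000 or 10,000 cells/well and treated with compound (final 0.5% DMSO) for 16 h, then formaldehyde-fixed, Triton-permeabilized and co-stained for ER and GAPDH with 680/800 secondaries; LI-COR plate read. ER level expressed relative to untreated/DMSO-treated wells set at 100%.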
# [2] = Cell growth assay (WST-8) (Compounds B1-B278); assay type: cell-based; details: 96 h; T47D cell line; WST-8, 4 days; read-out: Cell Growth Inhibition in T47D cell line IC50
# How it was run: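 Cells seeded at 1500/well overnight, treated one day later with compound doses for 4 days, then 10% WST-8 added for 2.5 h at 37° C in CO2. Absorbance at 450 nm, expressed relative to vehicle control over three independent repeats.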
# ER, sequence (P03372 whole entry): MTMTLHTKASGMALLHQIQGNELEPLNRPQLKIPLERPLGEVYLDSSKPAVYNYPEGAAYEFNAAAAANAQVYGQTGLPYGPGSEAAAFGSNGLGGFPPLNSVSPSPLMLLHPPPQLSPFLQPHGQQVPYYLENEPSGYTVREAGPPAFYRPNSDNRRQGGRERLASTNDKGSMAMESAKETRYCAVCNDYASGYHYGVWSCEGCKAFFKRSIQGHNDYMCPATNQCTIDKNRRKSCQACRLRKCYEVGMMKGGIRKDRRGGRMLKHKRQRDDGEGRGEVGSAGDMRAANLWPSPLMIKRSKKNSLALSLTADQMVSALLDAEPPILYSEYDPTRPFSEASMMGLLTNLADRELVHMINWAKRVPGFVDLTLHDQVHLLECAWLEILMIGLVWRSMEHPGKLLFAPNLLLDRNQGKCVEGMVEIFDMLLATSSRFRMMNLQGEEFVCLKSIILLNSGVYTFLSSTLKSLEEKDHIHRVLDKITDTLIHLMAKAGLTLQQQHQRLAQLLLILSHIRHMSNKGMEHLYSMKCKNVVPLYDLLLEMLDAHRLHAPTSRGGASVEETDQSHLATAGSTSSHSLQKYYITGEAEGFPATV
Compound,DC50 [1],IC50 [2]
"C[C@@H]1Cc2c([nH]c3ccccc23)[C@@H](c2cnc(N3CC4(CCC(CN5CCN6c7ccc8c(c7OC[C@H]6C5)CN(C5CCC(=O)NC5=O)C8=O)CC4)C3)nc2)N1CC(C)(C)F (stereo partly drawn) [Compound B182, 3-((R)-7-((2-(5-((1R,3R)-2-(2-fluoro-2-methylpropyl)-3-methyl-2,3,4,9-tetrahydro-1H-pyrido[3,4-b]indol-1-yl)pyrimidin-2-yl)-2-azaspiro[3.5]nonan-7-yl)methyl)-1-oxo-1,3,5,5a,6,7,8,9-octahydro-2H-pyrazino[1′,2′:4,5][1,4]oxazino[2,3-e]isoindol-2-yl)piperidine-2,6-dione]",< 10 nM,1 to 10 nM
"C[C@@H]1Cc2c([nH]c3ccccc23)[C@@H](c2cnc(N3CC4(CCC(CN5CCN6c7ccc8c(c7OC[C@H]6C5)CN(C5CCC(=O)NC5=O)C8=O)CC4)C3)nc2)N1CC(F)F (stereo partly drawn) [Compound B183, 3-((R)-7-((2-(5-((1R,3R)-2-(2,2-difluoroethyl)-3-methyl-2,3,4,9-tetrahydro-1H-pyrido[3,4-b]indol-1-yl)pyrimidin-2-yl)-2-azaspiro[3.5]nonan-7-yl)methyl)-1-oxo-1,3,5,5a,6,7,8,9-octahydro-2H-pyrazino[1′,2′:4,5][1,4]oxazino[2,3-e]isoindol-2-yl)piperidine-2,6-dione]",< 10 nM,1 to 10 nM
"C[C@@H]1Cc2c([nH]c3ccccc23)[C@@H](c2cnc(N3CCC(CN4CCN5c6ccc7c(c6OC[C@@H]5C4)CN(C4CCC(=O)NC4=O)C7=O)CC3)nc2)N1CC(C)(C)F (stereo partly drawn) [Compound B258, 3-((S)-7-((1-(5-((1R,3R)-2-(2-fluoro-2-methylpropyl)-3-methyl-2,3,4,9-tetrahydro-1H-pyrido[3,4-b]indol-1-yl)pyrimidin-2-yl)piperidin-4-yl)methyl)-1-oxo-1,3,5,5a,6,7,8,9-octahydro-2H-pyrazino[1′,2′:4,5][1,4]oxazino[2,3-e]isoindol-2-yl)piperidine-2,6-dione]",> 100 nM,< 1 nM
"C[C@@H]1Cc2c([nH]c3ccccc23)[C@@H](c2cnc(N3CC4(CCC(CN5CCN6c7ccc8c(c7OC[C@H]6C5)CN(C5CCC(=O)NC5=O)C8=O)CC4)C3)nc2)N1CC1(F)CC1 (stereo partly drawn) [Compound B260, 3-((R)-7-((2-(5-((1R,3R)-2-((1-fluorocyclopropyl)methyl)-3-methyl-2,3,4,9-tetrahydro-1H-pyrido[3,4-b]indol-1-yl)pyrimidin-2-yl)-2-azaspiro[3.5]nonan-7-yl)methyl)-1-oxo-1,3,5,5a,6,7,8,9-octahydro-2H-pyrazino[1′,2′:4,5][1,4]oxazino[2,3-e]isoindol-2-yl)piperidine-2,6-dione]",10 to 100 nM,1 to 10 nM
"C[C@@H]1Cc2c([nH]c3ccccc23)[C@@H](c2cnc(N3CCC4(CC3)CC(CN3CCN5c6ccc7c(c6OC[C@H]5C3)CN(C3CCC(=O)NC3=O)C7=O)C4)nc2)N1CC1(F)CC1 (stereo partly drawn) [Compound B261, 3-((R)-7-((7-(5-((1R,3R)-2-((1-fluorocyclopropyl)methyl)-3-methyl-2,3,4,9-tetrahydro-1H-pyrido[3,4-b]indol-1-yl)pyrimidin-2-yl)-7-azaspiro[3.5]nonan-2-yl)methyl)-1-oxo-1,3,5,5a,6,7,8,9-octahydro-2H-pyrazino[1′,2′:4,5][1,4]oxazino[2,3-e]isoindol-2-yl)piperidine-2,6-dione]",10 to 100 nM,1 to 10 nM
"C[C@@H]1Cc2c([nH]c3ccccc23)[C@@H](c2cnc(N3CCC4(CC3)CC(CN3CCC5(CC3)COc3c5ccc5c3CN(C3CCC(=O)NC3=O)C5=O)C4)nc2)N1CC(F)F (stereo partly drawn) [Compound B262, 3-(1′-((7-(5-((1R,3R)-2-(2,2-difluoroethyl)-3-methyl-2,3,4,9-tetrahydro-1H-pyrido[3,4-b]indol-1-yl)pyrimidin-2-yl)-7-azaspiro[3.5]nonan-2-yl)methyl)-6-oxo-6,8-dihydro-2H,7H-spiro[furo[2,3-e]isoindole-3,4′-piperidin]-7-yl)piperidine-2,6-dione]",10 to 100 nM,< 1 nM

# Source: patent publication US20260007681A1, “INDOLE DERIVATIVES AS ESTROGEN RECEPTOR DEGRADERS” (REGENTS OF THE UNIVERSITY OF MICHIGAN, priority 2022, published 2026)
